{"source": "patent US6197926A", "about": "“Methods for treatment of diabetes using peptide analogues of insulin” (Neurocrine Biosciences, priority 1999, dated 2001)", "assay_in_all_cases": "Proliferation of insulin-specific NOD T cell clone", "assay_type_in_all_cases": "cell-based, mouse", "settings_in_all_cases": "50 μg/ml peptide, 72 hours", "key": {"T cell clone PD12-4.4": {"system": "T cell clone PD12-4.4", "experimental": "(§1) Insulin specific NOD T cell lines were established by culturing lymphocytes isolated from islet-infiltrating populations by in vitro stimulation with either porcine insulin at 25 μg/ml and irradiated NOD islet cells in the presence of irradiated NOD spleen cells as antigen presenting cells and cytokines. To obtain the infiltrating lymphocytes the following procedures were performed (see WeLimann et al., Eur. J. Immunol. 24:1853, 1994): the pancreas from the NOD mouse was digested with collatenase and individual islets were isolated manually. The infiltrating lymphocytes were then obtained by mild trypsin digestion of the islets. The insulin specific T cell lines or clones were propagated by serial stimulation in the presence of NOD spleen cells, porcine insulin and lymphokines. Clones were obtained by limiting dilution of the B chain (9-23) specific T cell lines in the presence of the antigen presenting cells and porcine insulin at 25 μg/ml. Wells with a growing population of cells following limiting dilution were expanded in appropriate medium, and after one cycle of growth were tested for reactivity to the B chain (9-23) peptide of insulin by evaluating the proliferative response.\n(§2) Insulin B chain (9-23) (SEQ ID NO:2) specific mouse (NOD) T cell clones were isolated from infiltrated islets as described in Example 2. Peptide analogues with single alanine substitutions were prepared as described in Example 1. The effect of each analogue on T cell prolircration was then evaluated using an assay performed in 96-well flat bottom microtiter plates (see Daniel et al., Eur. J. Immunol. 25 :1056, 1995). Briefly 25,000 T cell clones along with 1 million irradiated NOD spleen cells were cultured in the presence of 50 μg/ml of insulin B chain 9-23 peptide or any of the alanine substituted peptides listed below in triplicate sets. The plates were incubated for a total of 72 hours in 7% carbon dioxide atmosphere with a pulse of 1 μCi/well of tritiated thymidine for the last 6-8 hours of culture. Cells were harvested on a glass fiber filter and the associated radioactivity was counted in a liquid scintillation counter. Results are expressed as mean counts per minute of triplicate wells."}, "T cell clone PD12-4.29": {"system": "T cell clone PD12-4.29", "experimental": "as §1, §2"}, "T cell clone PD12-4.34": {"system": "T cell clone PD12-4.34", "experimental": "as §1, §2"}, "T cell clone PD6-4.3": {"system": "T cell clone PD6-4.3", "experimental": "as §1, §2"}, "T cell clone PD12-2.40": {"system": "T cell clone PD12-2.40", "experimental": "as §1, §2\nNOD T cell clones were incubated in the presence of 50 μM of either the native B chain (9-23) peptide or NBI-6024. The data in Table 3 represent the mean of triplicate sample±standard error of the mean. Within Table 3, S.I. (Stimulation Index)=proliferation (cpm) in the presence of the peptide/proliferation (cpm) in medium alone."}}, "data": [{"substance": "Modified Position 11: insulin B chain (9-23) peptide analogue with native residue L at position 11 substituted with alanine", "values": [{"measurement": "Response (cpm)", "setting": "T cell clone PD12-4.4", "result": 474, "unit": "cpm"}, {"measurement": "Response (cpm)", "setting": "T cell clone PD12-4.29", "result": 18416, "unit": "cpm"}, {"measurement": "Response (cpm)", "setting": "T cell clone PD12-4.34", "result": 190, "unit": "cpm"}, {"measurement": "Response (cpm)", "setting": "T cell clone PD6-4.3", "result": 14148, "unit": "cpm"}, {"measurement": "Response (cpm)", "setting": "T cell clone PD12-2.40", "result": 2594, "unit": "cpm"}]}, {"substance": "Modified Position 19: insulin B chain (9-23) peptide analogue with native residue C at position 19 substituted with alanine", "values": [{"measurement": "Response (cpm)", "setting": "T cell clone PD12-4.4", "result": 4295, "unit": "cpm"}, {"measurement": "Response (cpm)", "setting": "T cell clone PD12-4.29", "result": 6054, "unit": "cpm"}, {"measurement": "Response (cpm)", "setting": "T cell clone PD12-4.34", "result": 689, "unit": "cpm"}, {"measurement": "Response (cpm)", "setting": "T cell clone PD6-4.3", "result": 7678, "unit": "cpm"}, {"measurement": "Response (cpm)", "setting": "T cell clone PD12-2.40", "result": 34212, "unit": "cpm"}]}, {"substance": "Modified Position 23: insulin B chain (9-23) peptide analogue with native residue G at position 23 substituted with alanine", "values": [{"measurement": "Response (cpm)", "setting": "T cell clone PD12-4.4", "result": 3228, "unit": "cpm"}, {"measurement": "Response (cpm)", "setting": "T cell clone PD12-4.29", "result": 18422, "unit": "cpm"}, {"measurement": "Response (cpm)", "setting": "T cell clone PD12-4.34", "result": 791, "unit": "cpm"}, {"measurement": "Response (cpm)", "setting": "T cell clone PD6-4.3", "result": 14304, "unit": "cpm"}, {"measurement": "Response (cpm)", "setting": "T cell clone PD12-2.40", "result": 75441, "unit": "cpm"}]}, {"substance": "Modified Position 10: insulin B chain (9-23) peptide analogue with native residue H at position 10 substituted with alanine", "values": [{"measurement": "Response (cpm)", "setting": "T cell clone PD12-4.4", "result": 823, "unit": "cpm"}, {"measurement": "Response (cpm)", "setting": "T cell clone PD12-4.29", "result": 15484, "unit": "cpm"}, {"measurement": "Response (cpm)", "setting": "T cell clone PD12-4.34", "result": 356, "unit": "cpm"}, {"measurement": "Response (cpm)", "setting": "T cell clone PD6-4.3", "result": 12507, "unit": "cpm"}, {"measurement": "Response (cpm)", "setting": "T cell clone PD12-2.40", "result": 1409, "unit": "cpm"}]}, {"substance": "Modified Position 20: insulin B chain (9-23) peptide analogue with native residue G at position 20 substituted with alanine", "values": [{"measurement": "Response (cpm)", "setting": "T cell clone PD12-4.4", "result": 1323, "unit": "cpm"}, {"measurement": "Response (cpm)", "setting": "T cell clone PD12-4.29", "result": 13736, "unit": "cpm"}, {"measurement": "Response (cpm)", "setting": "T cell clone PD12-4.34", "result": 466, "unit": "cpm"}, {"measurement": "Response (cpm)", "setting": "T cell clone PD6-4.3", "result": 2440, "unit": "cpm"}, {"measurement": "Response (cpm)", "setting": "T cell clone PD12-2.40", "result": 38685, "unit": "cpm"}]}, {"substance": "Modified Position 22: insulin B chain (9-23) peptide analogue with native residue R at position 22 substituted with alanine", "values": [{"measurement": "Response (cpm)", "setting": "T cell clone PD12-4.4", "result": 1313, "unit": "cpm"}, {"measurement": "Response (cpm)", "setting": "T cell clone PD12-4.29", "result": 12635, "unit": "cpm"}, {"measurement": "Response (cpm)", "setting": "T cell clone PD12-4.34", "result": 1555, "unit": "cpm"}, {"measurement": "Response (cpm)", "setting": "T cell clone PD6-4.3", "result": 6555, "unit": "cpm"}, {"measurement": "Response (cpm)", "setting": "T cell clone PD12-2.40", "result": 51722, "unit": "cpm"}]}, {"substance": "Modified Position 21: insulin B chain (9-23) peptide analogue with native residue E at position 21 substituted with alanine", "values": [{"measurement": "Response (cpm)", "setting": "T cell clone PD12-4.4", "result": 7900, "unit": "cpm"}, {"measurement": "Response (cpm)", "setting": "T cell clone PD12-4.29", "result": 4904, "unit": "cpm"}, {"measurement": "Response (cpm)", "setting": "T cell clone PD12-4.34", "result": 773, "unit": "cpm"}, {"measurement": "Response (cpm)", "setting": "T cell clone PD6-4.3", "result": 91, "unit": "cpm"}, {"measurement": "Response (cpm)", "setting": "T cell clone PD12-2.40", "result": 39087, "unit": "cpm"}]}]}
